Patent US10287251B2, “Pyrazole derivative or pharmaceutically acceptable salt thereof” (KISSEI PHARMACEUTICAL CO., LTD., priority 2015, dated 2019)
Blank lines part the entries; values can stand above or below the compound they belong to.

What was measured:
[1] = tested on: overactive bladder induced by acetic acid; assay: Confirmation test of elongation action of micturition interval of overactive bladder induced by acetic acid; assay type: in vivo; conditions: Rattus norvegicus, iv; urethane-anesthetized female SD rats, 1 mg/kg/mL via femoral vein, intravesical 0.25% acetic acid; interval after/before administration x100
From the text: Further, TRPM8 inhibitory activity can be evaluated by the efficacy inhibiting the wet-dog shake action which is induced by the administration of Icilin, TRPM8 agonist. Furthermore, an effect on overactive bladder (OAB) can be evaluated by an elongation of micturition interval against overactive bladder induced by acetic acid in accordance with a similar method described in J. Urol., 2001, 166, 1142. Confirmation Test of Elongation Action of Micturition Interval of Overactive Bladder Induced by Acetic Acid Urethane (sigma) was dissolved into pure water by 25% w/v, and female SD rats were anesthetized with 1.25 g/kg urethane by subcutaneous administration. Cannulae were placed in femoral vein and bladder, and the bladder cannula was connected to both a syringe pump and a pressure transducer. Detrusor overactivity was induced by intravesical infusion of 0.25% acetic acid in saline at a rate of 3.6 mL/h, and intravesical pressure was monitored via pressure transducer concurrently. Test compounds were dissolved into a mixture of dimethylacetamide and saline (20:80), and were administered via, the femoral vein. Elongation of micturition interval (%) by test compound was calculated from the following formula: [an average of the three micturition interval after administration/an average of the three micturition interval before administration]×100.

TRPM8 = molecular target: T1, TRPM8 (Rattus norvegicus, UniProt Q8R455); assay: Confirmation test of inhibitory effects on icilin-induced wet-dog shakes; assay type: in vivo; conditions: female SD rats, icilin 1 mg/kg i.p. 1 hour after dosing, shakes counted for 5 minutes
T1 construct: from tissue; host or cells: whole animal, female SD rats (in vivo)
T1 sequence (Q8R455 whole entry): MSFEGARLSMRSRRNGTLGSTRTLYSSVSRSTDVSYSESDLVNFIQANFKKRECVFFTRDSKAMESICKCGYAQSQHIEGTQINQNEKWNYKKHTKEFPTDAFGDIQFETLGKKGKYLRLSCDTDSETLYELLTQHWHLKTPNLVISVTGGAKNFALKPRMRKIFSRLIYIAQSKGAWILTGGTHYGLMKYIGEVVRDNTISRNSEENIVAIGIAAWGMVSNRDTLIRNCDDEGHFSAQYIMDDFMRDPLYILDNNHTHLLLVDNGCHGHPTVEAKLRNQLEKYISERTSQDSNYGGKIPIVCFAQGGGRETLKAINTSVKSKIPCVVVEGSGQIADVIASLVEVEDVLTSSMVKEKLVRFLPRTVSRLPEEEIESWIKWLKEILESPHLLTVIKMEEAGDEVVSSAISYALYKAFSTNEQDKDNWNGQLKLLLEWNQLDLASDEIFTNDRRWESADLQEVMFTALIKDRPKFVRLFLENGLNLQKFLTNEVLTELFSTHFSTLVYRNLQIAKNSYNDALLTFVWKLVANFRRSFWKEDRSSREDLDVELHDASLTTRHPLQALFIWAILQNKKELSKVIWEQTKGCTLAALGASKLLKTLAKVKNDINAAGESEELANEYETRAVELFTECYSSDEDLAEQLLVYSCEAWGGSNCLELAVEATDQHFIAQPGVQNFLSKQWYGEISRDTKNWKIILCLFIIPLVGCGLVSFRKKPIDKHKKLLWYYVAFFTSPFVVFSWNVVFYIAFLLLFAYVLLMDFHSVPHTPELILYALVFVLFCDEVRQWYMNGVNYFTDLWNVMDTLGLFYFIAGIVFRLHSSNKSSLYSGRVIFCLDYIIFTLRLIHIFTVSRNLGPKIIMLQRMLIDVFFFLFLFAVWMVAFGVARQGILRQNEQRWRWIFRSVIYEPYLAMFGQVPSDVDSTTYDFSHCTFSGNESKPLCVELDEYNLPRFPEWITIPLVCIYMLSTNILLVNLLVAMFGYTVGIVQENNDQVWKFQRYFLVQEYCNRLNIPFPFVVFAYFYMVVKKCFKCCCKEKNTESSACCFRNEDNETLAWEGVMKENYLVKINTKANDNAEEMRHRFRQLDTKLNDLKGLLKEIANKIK
Outline: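 Female SD rats received compounds orally at 0.3 to 10 mg/kg in 5% dimethylacetamide/0.5% methylcellulose. One hour later, icilin (1 mg/kg, i.p., in PEG 400) was given, and wet-dog shakes were counted for 5 min starting 5 min after icilin. Percent inhibition was calculated against vehicle-treated rats.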

% inhibition of Wet-Dog Shake (TRPM8; oral dose 0.3 mg/kg): 58%
Compound: CO[C@H](CO)[C@@H](Cc1ccccn1)NC(=O)c1cccc(F)c1-c1cc(-c2ccc(F)cc2)[nH]n1 [Example 43-3]
response vs control in vivo at 1 mg/kg [1]: 158%

% inhibition of Wet-Dog Shake (TRPM8; oral dose 0.3 mg/kg): 99%
Compound: O=C(N[C@H](Cn1nccn1)C(F)(F)CO)c1cccc(F)c1-c1cc(-c2ccc(F)cc2)[nH]n1 [Example 50-12, N-[(2R)-3,3-Difluoro-4-hydroxy-1-(2H-1,2,3-triazol-2-yl)butan-2-yl]-3-fluoro-2-[5-(4-fluorophenyl)-1H-pyrazol-3-yl]benzamide]
response vs control in vivo at 1 mg/kg [1]: 191%

% inhibition of Wet-Dog Shake (TRPM8; oral dose 0.3 mg/kg): 91%
Compound: O=C(N[C@H](Cn1nccn1)C(F)(F)CO)c1cccc(F)c1-c1n[nH]c(-c2ccc(F)cc2)c1F [Example 56-1, N-[(2R)-3,3-Difluoro-4-hydroxy-1-(2H-1,2,3-triazol-2-yl)butan-2-yl]-3-fluoro-2-[4-fluoro-5-(4-fluorophenyl)-1H-pyrazol-3-yl]benzamide]
response vs control in vivo at 1 mg/kg [1]: 150%

% inhibition of Wet-Dog Shake (TRPM8; oral dose 3 mg/kg): 80%
Compound: O=C(N[C@H](Cc1ccccn1)[C@H](F)CO)c1cccc(Cl)c1-c1cc(-c2ccc(F)cc2)[nH]n1 [Example 43-27]
response vs control in vivo at 1 mg/kg [1]: 185%

% inhibition of Wet-Dog Shake (TRPM8; oral dose 1 mg/kg): 54%
Compound: O=C(N[C@H](Cn1cccn1)[C@H](F)CO)c1cccc(F)c1-c1cc(-c2ccc(F)cc2)[nH]n1 [Example 50-6]
response vs control in vivo at 1 mg/kg [1]: 197%

% inhibition of Wet-Dog Shake (TRPM8; oral dose 0.3 mg/kg): 93%
Compound: O=C(N[C@H](Cn1nccn1)[C@H](F)CO)c1cccc(F)c1-c1n[nH]c(-c2ccc(F)cc2)c1F [Example 43-43]
response vs control in vivo at 1 mg/kg [1]: 172%

% inhibition of Wet-Dog Shake (TRPM8; oral dose 1 mg/kg): 90%
Compound: CO[C@H](CO)[C@@H](Cc1ccccn1)NC(=O)c1cccc(F)c1-c1cc(-c2ccc(Cl)cc2)[nH]n1 [Example 43-1, 2-[5-(4-Chlorophenyl)-1H-pyrazol-3-yl]-3-fluoro-N-[(2R,3 S)-4-hydroxy-3-methoxy-1-(pyridin-2-yl)butan-2-yl]benzamide]
response vs control in vivo at 1 mg/kg [1]: 156%

% inhibition of Wet-Dog Shake (TRPM8; oral dose 1 mg/kg): 51%
Compound: CO[C@H](CO)[C@@H](Cn1cccn1)NC(=O)c1cccc(F)c1-c1cc(-c2ccc(Cl)cc2)[nH]n1 [Example 27-14]
response vs control in vivo at 1 mg/kg [1]: 195%

% inhibition of Wet-Dog Shake (TRPM8; oral dose 1 mg/kg): 90%
Compound: CO[C@H](CO)[C@@H](Cn1cccn1)NC(=O)c1cccc(F)c1-c1n[nH]c(-c2ccc(F)cc2)c1F [Example 27-25]
response vs control in vivo at 1 mg/kg [1]: 167%

% inhibition of Wet-Dog Shake (TRPM8; oral dose 1 mg/kg): 100%
Compound: O=C(N[C@H](Cn1nccn1)[C@H](F)CO)c1cccc(F)c1-c1cc(-c2ccc(F)cc2)[nH]n1 [Example 43-42]
response vs control in vivo at 1 mg/kg [1]: 158%

% inhibition of Wet-Dog Shake (TRPM8; oral dose 3 mg/kg): 86%
Compound: CC(c1ccccn1)[C@@H](NC(=O)c1cccc(F)c1-c1cc(-c2ccc(Cl)cc2)[nH]n1)[C@H](O)CO (stereo partly shown) [Example 54-16]
response vs control in vivo at 1 mg/kg [1]: 132%

% inhibition of Wet-Dog Shake (TRPM8; oral dose 1 mg/kg): 84%
Compound: CO[C@H](CO)[C@@H](Cn1cccn1)NC(=O)c1cccc(F)c1-c1cc(-c2ccc(F)cc2)[nH]n1 [Example 27-1, 3-Fluoro-2-[5-(4-fluorophenyl)-1H-pyrazol-3-yl]-N-[(2R,3S)-4-hydroxy-3-methoxy-1-(1H-pyrazol-1-yl)butan-2-yl]benzamide]
response vs control in vivo at 1 mg/kg [1]: 158%

% inhibition of Wet-Dog Shake (TRPM8; oral dose 1 mg/kg): 92%
Compound: O=C(N[C@H](Cn1cccn1)C(F)(F)CO)c1cccc(F)c1-c1cc(-c2ccc(F)cc2)[nH]n1 [Example 50-1, N-[(2R)-3,3-Difluoro-4-hydroxy-1-(1H-pyrazol-1-yl)butan-2-yl]-3-fluoro-2-[5-(4-fluorophenyl)-1H-pyrazol-3-yl]benzamide]
response vs control in vivo at 1 mg/kg [1]: 217%

% inhibition of Wet-Dog Shake (TRPM8; oral dose 1 mg/kg): 88%
Compound: CO[C@H](CO)[C@@H](Cn1cccn1)NC(=O)c1ccccc1-c1cc(-c2ccc(F)cc2)[nH]n1 [Example 27-7]
response vs control in vivo at 1 mg/kg [1]: 176%

% inhibition of Wet-Dog Shake (TRPM8; oral dose 3 mg/kg): 89%
Compound: O=C(NC(CCO)Cc1ccccn1)c1cccc(F)c1-c1cc(-c2ccc(F)cc2)[nH]n1 (stereo not shown) [Example 26-1, 3-Fluoro-2-[5-(4-fluorophenyl)-1H-pyrazol-3-yl]-N-[4-hydroxy-1-(pyridin-2-yl)butan-2-yl]benzamide]

% inhibition of Wet-Dog Shake (TRPM8; oral dose 1 mg/kg): 79%
Compound: O=C(N[C@H](Cc1ncccn1)[C@H](F)CO)c1cccc(F)c1-c1cc(-c2ccc(F)cc2)[nH]n1 [Example 43-29]

% inhibition of Wet-Dog Shake (TRPM8; oral dose 3 mg/kg): 99%
Compound: CO[C@@H](CO)[C@@H](Cn1cccn1)NC(=O)c1cccc(F)c1-c1n[nH]c(-c2ccc(F)cc2)c1F [Example 27-24]

More lines, now with the values behind:

Compound: O=C(N[C@@H](CO)Cc1ccccn1)c1ccccc1-c1cc(-c2ccc(F)cc2)[nH]n1 [Example 1-58]
response vs control in vivo at 1 mg/kg [1]: 159%
% inhibition of Wet-Dog Shake (TRPM8; oral dose 3 mg/kg): 86%

Compound: CO[C@H](CO)[C@@H](Cc1ncccn1)NC(=O)c1cccc(F)c1-c1cc(-c2ccc(F)cc2)[nH]n1 [Example 1-227]
response vs control in vivo at 1 mg/kg [1]: 193%
% inhibition of Wet-Dog Shake (TRPM8; oral dose 1 mg/kg): 66%

Compound: NC(=O)[C@H](Cc1ccccc1)NC(=O)c1ccccc1-c1cc(-c2ccccc2)[nH]n1 [Example 1-14]
response vs control in vivo at 1 mg/kg [1]: 138%

Compound: O=C(N[C@H](Cc1ccccn1)[C@H](O)CO)c1cccc(F)c1-c1cc(-c2ccc(F)cc2)[nH]n1 [Example 1-139]
response vs control in vivo at 1 mg/kg [1]: 163%

Compound: O=C(N[C@@H](CCO)Cc1ccccn1)c1cccc(F)c1-c1cc(-c2ccc(F)cc2)[nH]n1 [Example 1-1, 3-Fluoro-2-[5-(4-fluorophenyl)-1H-pyrazol-3-yl]-N-[(2R)-4-hydroxy-1-(pyridin-2-yl)butan-2-yl]benzamide]
response vs control in vivo at 1 mg/kg [1]: 169%
% inhibition of Wet-Dog Shake (TRPM8; oral dose 1 mg/kg): 82%

Compound: CO[C@H](CO)[C@@H](Cc1ncccn1)NC(=O)c1ccccc1-c1cc(-c2ccc(F)cc2)[nH]n1 [Example 1-238]
response vs control in vivo at 1 mg/kg [1]: 136%
% inhibition of Wet-Dog Shake (TRPM8; oral dose 1 mg/kg): 82%

Compound: O=C(N[C@H](Cc1ccccn1)[C@H](O)CO)c1ccccc1-c1n[nH]c(-c2ccc(F)cc2)c1F [Example 1-172]
response vs control in vivo at 1 mg/kg [1]: 194%
% inhibition of Wet-Dog Shake (TRPM8; oral dose 1 mg/kg): 100%

Compound: O=C(N[C@@H](CCO)Cc1ncccc1F)c1cccc(F)c1-c1cc(-c2ccc(F)cc2)[nH]n1 [Example 1-125]
response vs control in vivo at 1 mg/kg [1]: 223%
% inhibition of Wet-Dog Shake (TRPM8; oral dose 1 mg/kg): 56%

Compound: O=C(N[C@@H](CO)Cc1ccccn1)c1cccc(F)c1-c1cc(-c2ccc(F)cc2)[nH]n1 [Example 1-84]
response vs control in vivo at 1 mg/kg [1]: 183%
% inhibition of Wet-Dog Shake (TRPM8; oral dose 1 mg/kg): 59%

Compound: O=C(N[C@@H](CCO)Cc1ccccn1)c1ccccc1-c1cc(-c2ccc(F)cc2)[nH]n1 [Example 1-208]
% inhibition of Wet-Dog Shake (TRPM8; oral dose 3 mg/kg): 100%

Compound: O=C(N[C@@H](CO)Cc1ccccn1)c1cccc(F)c1-c1n[nH]c(-c2ccc(F)cc2)c1F [Example 1-105]
% inhibition of Wet-Dog Shake (TRPM8; oral dose 3 mg/kg): 90%
